Data published in US20250352549A1, “SUBSTITUTED HETEROCYCLIC COMPOUND DERIVATIVES AND THEIR PHARMACEUTICAL USE” (AVELOS THERAPEUTICS INC., priority 0001, published 2025).

Legend:
[1] = system: breast cancer MDA-MB-231 cells; settings: disclosed in CN 116942819; cited from earlier work
[2] = system: T cells; settings: disclosed in CN 116942819; cited from earlier work
[3] = system: breast cancer MDA-MB-468 cells; settings: disclosed in CN 116942819; cited from earlier work
[4] = molecular target: Wild-type human active MASTL (Homo sapiens (Human), UniProt Q96GX5); assay: MASTL activity assay; format: biochemical; settings: ATP 18 μM, biotin tagged 40-mer ENSA peptide 10 nM, 60 minutes at room temperature, HTRF/FRET readout
Wild-type human active MASTL, sequence (Q96GX5 whole entry): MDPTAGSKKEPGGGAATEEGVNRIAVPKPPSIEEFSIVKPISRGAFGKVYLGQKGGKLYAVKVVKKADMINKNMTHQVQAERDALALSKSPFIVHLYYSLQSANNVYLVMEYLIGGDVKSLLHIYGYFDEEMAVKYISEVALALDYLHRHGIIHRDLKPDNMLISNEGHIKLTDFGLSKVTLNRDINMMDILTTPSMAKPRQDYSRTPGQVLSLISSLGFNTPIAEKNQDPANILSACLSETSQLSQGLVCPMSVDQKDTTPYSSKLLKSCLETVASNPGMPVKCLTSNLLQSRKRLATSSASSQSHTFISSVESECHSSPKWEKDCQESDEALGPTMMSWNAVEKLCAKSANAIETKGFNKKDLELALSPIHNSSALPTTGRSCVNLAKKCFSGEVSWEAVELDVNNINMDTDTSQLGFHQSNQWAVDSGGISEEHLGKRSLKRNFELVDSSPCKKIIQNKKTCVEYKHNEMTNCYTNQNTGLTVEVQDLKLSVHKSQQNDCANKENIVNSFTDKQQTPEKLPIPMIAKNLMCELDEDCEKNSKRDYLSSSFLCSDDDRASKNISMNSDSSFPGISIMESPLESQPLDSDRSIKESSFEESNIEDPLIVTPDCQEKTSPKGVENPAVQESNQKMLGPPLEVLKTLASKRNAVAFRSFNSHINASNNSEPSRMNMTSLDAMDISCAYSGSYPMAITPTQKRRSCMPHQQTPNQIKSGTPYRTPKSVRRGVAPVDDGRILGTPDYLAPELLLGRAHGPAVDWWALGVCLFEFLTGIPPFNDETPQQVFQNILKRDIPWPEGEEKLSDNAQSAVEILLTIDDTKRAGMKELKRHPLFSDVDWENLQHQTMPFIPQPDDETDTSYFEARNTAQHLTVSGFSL
Method: Wild-type human active MASTL (154 pM) was incubated in assay buffer (50 mM HEPES, 100 mM NaCl, 0.1 mM EGTA, 10 mM MgCl2, 0.01% Tween-20, 0.5 mM TCEP, pH 7.5) with biotin tagged 40-mer ENSA peptide (10 nM), test compound and ATP (18 μM) for 60 minutes at room temperature. Test compounds were assayed using a 12-point dose range consisting of a 0, DMSO control and 10 sequential doses consisting from 0.0005, 0.002, 0.005, 0.014, 0.04, 0.12, 0.37, 1.11, 3.33 and 10 μM. The DMSO concentration was the same (1%) in all samples. An equal volume of detection buffer (assay buffer+267.5 pM Ab-K, 1.25 nM SA-D2, 20 mM EDTA and 400 mM KF) was added to stop the reaction to make a final volume of 20 μl, RT for 60 mins. Activity was measured using a plate reader (PerkinElmer EnSight) by the FRET signal generated between SA-D2 (streptavidin-D2) and Ab-K (anti-phospho-Serine 67 ENSA antibody (rabbit polyclonal, using standard techniques by a commercial supplier) conjugated to Cryptate). HTRF reagents (CisBio) were prepared as per the manufacturer recommendations. The 40-mer biotin-tagged ENSA peptide (synthesised by Bionics) used was based around Serine 67 on ENSA ([…]).

Structure (SMILES)	effect on PD-L1 expression of tumor cells which expressed PD-L1 in a high level and were not affected by interferon [1]	anti-tumor function of T cells [2]	effect on the up-regulation of the interferon-induced PD-L1 expression [3]	IC50 [4] [nM]
O=C(Nc1nc2ccccc2[nH]1)c1cccc(-n2cccc2)c1 [MKI-1]	not possible to effect	effectively enhance the anti-tumor function of T cells	remarkable inhibition effect	–
Cc1nc([C@H](Nc2nc(N)nc(-c3ccc4cnc(C)n4c3)n2)C(C)C)c[nH]1 (single isomer, unassigned) [Example 155A, 6-(3-methylimidazo[1,5-a]pyridin-6-yl)-N4-[(1S or 1R)-2-methyl-1-(2-methyl-1H-imidazol-4-yl)propyl]-1,3,5-triazine-2,4-diamine]	–	–	–	500 to 1000
